Test results taken from publication PMC10458458, “Characterization of Anticancer Effects of the Analogs of DJ4, a Novel Selective Inhibitor of ROCK and MRCK Kinases” (Pharmaceuticals, 2023).

Experiments:
ROCK1 = ROCK1 (Homo sapiens, UniProt Q13464); assay: KINOMEscan competition binding assay; design: purchased DiscoverX Corporation (Lead Hunter Discovery Services, KINOMEscan); details: ROCK1, 10 µM
Excerpt: (§1) To examine specificity of DJ4 to different human kinases, we performed a KINOMEscan profiling assay (DiscoverX, Fremont, CA, USA). The KINOMEscan assay consists of a panel of more than 480 kinases of different classes (TK/TKL/STE/CK1/AGC/CAMK/CMGC/others), including clinically relevant mutants, atypical kinases, lipid, and pathogen kinases. […] However, we also recognized the limitations of DJ4 that preclude its clinical development and the need for further optimization of the DJ4 chemotype.
(§2) The KINOMEscan®, in vitro competition binding assay, was performed by Lead Hunter Discovery Services (DiscoverX Corporation, Fremont, CA, USA) to determine the kinase specificity of DJ4, a novel kinase inhibitor [19, 44]. The KINOMEscan® panel consists of more than 480 kinases, including clinically relevant mutants, lipid, atypical, and pathogen kinases, plus a growing panel of activation-state specific assays. The primary screen was performed using a single concentration of 10 µM, and the results for DJ4 binding interactions are reported as percent of control (%Ctrl). The %Ctrl is calculated as follows: [(DJ4 signal-positive control signal)/(negative control DMSO signal-positive control signal)] x […]. The human kinome tree annotation for DJ4 is plotted with Reaction Biology’s Kinase Mapper and KinMap web interface tool http://kinhub.org/kinmap (accessed on 09 January 2023).

ROCK2 = ROCK2 (Homo sapiens, UniProt O75116); assay: KINOMEscan competition binding assay; design: purchased DiscoverX Corporation (Lead Hunter Discovery Services, KINOMEscan); details: ROCK2, 10 µM
Excerpt: as §1, §2

CDK11 = assay: KINOMEscan competition binding assay; design: species or system human; details: CDK11, 10 µM
Excerpt: as §1, §2

A549 lung cancer cells = assay: Colony forming assay; assay type: cell-based, human; details: then 14 days treatment-free, relative to control
Procedure: Figure 2 DJ4 reduces cell survival and inhibits colony forming ability of the cancer cells. (A) Different NSCLC cells were plated in a 96-well plate to confluence and then treated for 72 h. Cytotoxicity was assessed by MTT assay. The error bars indicate SEM of triplicates. (B) To assess cytotoxicity of DJ4 in breast cancer cells, MDA-MB-231 cells were treated for 24 h with indicated concentrations of DJ4. Percentage of live cells were counted using Muse^TM Live/Dead reagent and analyzed by Muse^TM cell analyzer. Error bars indicate SEM. n = 2. * p < 0.05. (C) DJ4 inhibits colony forming ability of A549 cells treated for 48 h. After a 48-h treatment, cells were seeded with number of cells mentioned in the table and were allowed to grow and form colonies. At the end of 14 days, colonies were stained and counted. Percent surviving fraction was calculated. The figure is the representative of the replicates. (D) The data are summarized in the table and represent the average of three replicates. TEXT PRINTED IN THE PICTURE: (D) DJ4: Surviving Fraction after 14 days (%): 2.3 (Concentration: 2.5μM; Number of cells plated: 2000; SEM: 0.1); Surviving Fraction after 14 days (%): 0.4 (Concentration: 5μM; Number of cells plated: 4000; SEM: 0.0); Surviving Fraction after 14 days (%): 0.1 (Concentration: 10μM; Number of cells plated: 8000; SEM: 0.0)
To further determine the effects of DJ4 on cell proliferation, we performed colony forming assays in A549 lung cancer cells. Forty-eight hours after the treatment with 2.5, 5.0, and 10 µM DJ4, individual cells were re-plated at low seeding density and colony formation was monitored for 14 days. The percent surviving fraction of cells relative to control cells that formed the distinct colonies were 2.3%, 0.4%, and 0.1% at 2.5, 5.0, and 10 µM, respectively, after 14 days of growth in a treatment-free culture medium (Figure 2C,D).

A549 cells = assay: Western blot of cell cycle regulatory proteins; assay type: cell-based, human
Procedure: To better understand the anti-proliferative and pro-apoptotic effects of DJ4, expression of key proteins involved in proliferation and apoptosis were determined by a Western blot. A549 cells were treated with 2.5 µM and 10 µM concentrations for 24 h and 48 h. […] We also examined the expression of cyclin D3 and CDK4 (G1/S cell cycle checkpoint kinase).
For protein expression studies, MDA-MB-231 cells were treated with indicated concentrations of DJ4 for 24 h. Additionally, A549 cells were treated for 24 h and 48 h. Cell lysate preparation, protein estimation, and Western blot analysis was performed as per the procedure reported earlier. The blots were probed with cleaved caspase 7 (#9492, Cell Signaling, Danvers, MA, USA), GAPDH (#97166, Cell Signaling, Danvers, MA, USA), β-Actin (#3700, Cell Signaling, Danvers, MA, USA), pErk (#5726, Cell Signaling, Danvers, MA, USA), p21 ^WAF1/CIP1 (#60480, Cell Signaling, Danvers, MA, USA), cyclinD3 (#2936, Cell Signaling, Danvers, MA, USA), CDK4 (#23972, Cell Signaling, Danvers, MA, USA), cleaved PARP (#32563, Cell Signaling, Danvers, MA, USA), pan Erk (#23887, Cell Signaling, Danvers, MA, USA), pMYPT1 (Thr853, # SAB4503944, Millipore, Inc., Burlington, MA, USA) and PCNA (#sc-56, Santa Cruz Biotechnology, Inc., Dallas, TX, USA) antibodies.

Chain of ROCK1 (Q13464 whole entry): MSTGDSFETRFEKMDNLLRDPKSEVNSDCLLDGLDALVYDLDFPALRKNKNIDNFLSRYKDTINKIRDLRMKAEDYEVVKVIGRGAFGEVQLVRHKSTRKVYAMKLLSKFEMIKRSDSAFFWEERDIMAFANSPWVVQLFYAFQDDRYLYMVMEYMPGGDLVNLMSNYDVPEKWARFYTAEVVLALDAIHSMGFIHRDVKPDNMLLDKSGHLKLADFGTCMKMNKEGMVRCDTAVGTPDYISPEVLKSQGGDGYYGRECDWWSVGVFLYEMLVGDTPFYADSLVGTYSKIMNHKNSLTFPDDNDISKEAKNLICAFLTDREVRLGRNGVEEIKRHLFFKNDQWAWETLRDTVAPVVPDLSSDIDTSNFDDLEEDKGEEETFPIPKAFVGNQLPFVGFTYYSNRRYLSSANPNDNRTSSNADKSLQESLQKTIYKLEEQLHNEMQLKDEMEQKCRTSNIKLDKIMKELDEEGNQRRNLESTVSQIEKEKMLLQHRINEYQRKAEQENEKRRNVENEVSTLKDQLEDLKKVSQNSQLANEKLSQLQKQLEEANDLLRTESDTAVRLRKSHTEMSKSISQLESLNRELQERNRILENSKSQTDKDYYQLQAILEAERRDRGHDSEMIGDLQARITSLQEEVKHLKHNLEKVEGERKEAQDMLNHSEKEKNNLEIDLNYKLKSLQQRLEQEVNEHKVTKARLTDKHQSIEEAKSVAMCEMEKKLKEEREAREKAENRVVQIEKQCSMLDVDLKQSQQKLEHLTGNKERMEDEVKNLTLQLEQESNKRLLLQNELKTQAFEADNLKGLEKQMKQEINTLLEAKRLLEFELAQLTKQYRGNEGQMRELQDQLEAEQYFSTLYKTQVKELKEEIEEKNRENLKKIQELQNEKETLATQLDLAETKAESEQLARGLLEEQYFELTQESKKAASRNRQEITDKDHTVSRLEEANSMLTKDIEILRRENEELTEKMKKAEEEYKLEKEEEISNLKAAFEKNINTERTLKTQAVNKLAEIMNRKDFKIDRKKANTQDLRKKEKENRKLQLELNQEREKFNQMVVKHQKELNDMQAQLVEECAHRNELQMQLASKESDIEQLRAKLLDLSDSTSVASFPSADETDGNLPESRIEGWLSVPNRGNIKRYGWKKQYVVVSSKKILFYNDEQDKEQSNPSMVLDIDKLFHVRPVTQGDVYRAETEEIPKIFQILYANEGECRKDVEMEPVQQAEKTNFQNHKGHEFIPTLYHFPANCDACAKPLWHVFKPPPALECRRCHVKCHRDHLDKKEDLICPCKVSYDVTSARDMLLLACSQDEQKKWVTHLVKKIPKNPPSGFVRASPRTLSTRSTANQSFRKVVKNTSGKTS
Chain of ROCK2 (O75116 whole entry): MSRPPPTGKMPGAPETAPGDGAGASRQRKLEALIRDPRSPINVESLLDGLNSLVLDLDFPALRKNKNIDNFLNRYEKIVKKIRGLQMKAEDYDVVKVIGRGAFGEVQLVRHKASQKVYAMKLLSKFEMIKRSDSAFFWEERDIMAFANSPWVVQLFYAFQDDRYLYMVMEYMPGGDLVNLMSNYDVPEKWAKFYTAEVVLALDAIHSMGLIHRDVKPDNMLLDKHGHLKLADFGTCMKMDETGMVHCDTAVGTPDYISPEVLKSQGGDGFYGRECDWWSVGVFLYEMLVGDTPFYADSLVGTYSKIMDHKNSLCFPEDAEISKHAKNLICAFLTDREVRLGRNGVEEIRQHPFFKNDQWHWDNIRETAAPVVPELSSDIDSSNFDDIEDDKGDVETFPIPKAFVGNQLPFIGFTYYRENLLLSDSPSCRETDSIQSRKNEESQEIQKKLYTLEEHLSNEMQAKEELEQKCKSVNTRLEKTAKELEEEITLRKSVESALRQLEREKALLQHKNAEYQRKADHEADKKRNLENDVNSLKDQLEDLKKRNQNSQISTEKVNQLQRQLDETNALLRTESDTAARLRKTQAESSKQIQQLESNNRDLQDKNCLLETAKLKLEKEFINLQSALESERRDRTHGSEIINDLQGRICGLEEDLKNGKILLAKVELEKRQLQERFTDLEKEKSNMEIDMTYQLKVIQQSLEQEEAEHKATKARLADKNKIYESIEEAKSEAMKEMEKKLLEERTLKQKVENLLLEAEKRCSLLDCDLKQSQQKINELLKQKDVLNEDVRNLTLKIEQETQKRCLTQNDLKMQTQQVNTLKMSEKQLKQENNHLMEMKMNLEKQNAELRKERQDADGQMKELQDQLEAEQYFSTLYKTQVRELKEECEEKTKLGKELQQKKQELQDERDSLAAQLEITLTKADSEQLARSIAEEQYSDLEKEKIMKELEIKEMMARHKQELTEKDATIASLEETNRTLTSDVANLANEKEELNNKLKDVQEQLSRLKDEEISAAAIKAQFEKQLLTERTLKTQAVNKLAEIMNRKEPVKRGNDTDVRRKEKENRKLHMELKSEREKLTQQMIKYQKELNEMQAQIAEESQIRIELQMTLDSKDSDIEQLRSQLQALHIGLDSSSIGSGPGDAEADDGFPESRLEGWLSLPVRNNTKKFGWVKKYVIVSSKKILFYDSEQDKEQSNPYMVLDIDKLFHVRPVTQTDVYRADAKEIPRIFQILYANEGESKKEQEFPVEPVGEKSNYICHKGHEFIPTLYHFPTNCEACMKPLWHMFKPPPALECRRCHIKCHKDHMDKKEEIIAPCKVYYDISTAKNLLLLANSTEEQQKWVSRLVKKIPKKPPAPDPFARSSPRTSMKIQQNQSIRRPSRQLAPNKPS

SMILES: O=C1N/C(=N\CCc2ccccc2)S/C1=C/c1c[nH]c2ncccc12 [DJ4]
- inhibition at 10 µM (ROCK1): > 98%
- inhibition at 10 µM (ROCK2): > 98%
- inhibition (KINOMEscan) (CDK11): more than 98%
- Surviving Fraction after 14 days (A549 lung cancer cells; A549, 2.5 µM for 48 h): 2.3%
- Surviving Fraction after 14 days (A549 lung cancer cells; A549, 5.0 µM for 48 h): 0.4%
- Surviving Fraction after 14 days (A549 lung cancer cells; A549, 10 µM for 48 h): 0.1%
- activation of Erk1/2 (phospho-Erk; pERK) (A549 cells; A549, 2.5 µM, 24 h): significantly induced activation
- expression of CDK4 (A549 cells; A549, 2.5 µM, 24 h): upregulated
- expression of cyclin D3 (A549 cells; A549, 2.5 µM, 24 h): upregulated
- expression of p21 WAF1/CIP1 (A549 cells; A549, 2.5 µM, 24 h): upregulated
- expression of p21 WAF1/CIP1, pERK, CDK4, and cyclin D3 (A549 cells; A549, 10 µM, 24 h and 48 h): decreased below vehicle treatment levels
